Assay results: paper PMC8952364, “Polyphenols as Inhibitors of Antibiotic Resistant Bacteria—Mechanisms Underlying Rutin Interference with Bacterial Virulence” (Pharmaceuticals, 2022)
Values after ≈ are worked out from the molar mass of the structure shown. Like-named read-outs stand apart in the source and are kept apart here.

What was measured:
[1] = system: P. aeruginosa IBRS P001 biofilm; assay: Crystal violet antibiofilm assay (biofilm formation); assay type: cell-based, Pseudomonas aeruginosa; details: 24 h
Procedure: After incubation, each well was washed twice with sterile PBS (phosphate-buffered saline, pH 7.4) and fixed with methanol for 10 min. After removal of methanol the plate was air-dried. The biofilm was stained with 0.1% crystal violet (Bio-Merieux, Marcy l’Etoile, France) for 30 min. The plate was washed with water, air dried, and the stain was dissolved with 200 μL of 96% ethanol (Zorka, Sabac, Serbia). The absorbance was read at 620 nm on a Multiskan™ FC microplate photometer (Thermo Scientific™, Waltham, MA, USA). The results are presented as biofilm forming capacity (%) compared to control.

P. aeruginosa ATCC 10145 = system: P. aeruginosa ATCC 10145; set-up: method as in PMID 22823343; details: cited from earlier work
K. pneumoniae Ni9 = assay: Antimicrobial microdilution assay (MIC/MBC); assay type: cell-based, Klebsiella pneumoniae; details: for MIC: 37 °C, 24 h; for MBC: subcultivation, 24 h at 37 °C
Procedure: (§1) The bacterial suspension (0.5 Mc Farland) was prepared, and twenty-fold dilutions of these suspensions were mixed in a 1:10 ratio with the corresponding polyphenol dilution (0.0039–1 mg/mL). Microtiter plates were incubated at 37 °C for 24 h. The lowest concentrations without visible growth (under a binocular microscope) were defined as MICs. The bactericidal concentrations (MBCs) were determined by serial subcultivation of 2 μL of the well’s content and further incubation for 24 h at 37 °C. Streptomycin (SigmaAldrich, Darmstadt, Germany) was used as a positive control. The polyphenols were obtained from Extrasynthese, Rhone, France (rutin, isoquercitrin) and SigmaAldrich, Germany (hesperetin, hesperidin, naringenin, naringin, taxifolin, morin, chlorogenic acid, ferulic acid, p-coumaric acid, and gallic acid). The stock compounds were prepared in ethanol (30%), and adequate ethanol concentrations were used as the negative control in the assays. Experiments were done in triplicate.

K. pneumoniae IT977 = assay: Antimicrobial microdilution assay (MIC/MBC); assay type: cell-based, Klebsiella pneumoniae; details: for MIC: 37 °C, 24 h; for MBC: subcultivation, 24 h at 37 °C
Procedure: as §1

P. aeruginosa MMA83 = assay: Antimicrobial microdilution assay (MIC/MBC); assay type: cell-based, Pseudomonas aeruginosa; details: for MIC: 37 °C, 24 h; for MBC: subcultivation, 24 h at 37 °C
Procedure: as §1

P. aeruginosa IBRS P001 = assay: Antimicrobial microdilution assay (MIC/MBC); assay type: cell-based, Pseudomonas aeruginosa; details: for MIC: 37 °C, 24 h; for MBC: subcultivation, 24 h at 37 °C
Procedure: as §1

S. aureus CECT 976 = system: S. aureus CECT 976; set-up: method as in PMID 22823343; details: cited from earlier work
[2] = system: P. aeruginosa ATCC 10145 biofilms; set-up: method as in PMID 22823343; details: 1000 µg/mL; cited from earlier work
HaCaT cells [3] = assay: Cytotoxicity in HaCaT cell line (crystal violet assay); assay type: cell-based, human; details: HaCaT, 24 h treatment, crystal violet
Procedure: For determination of the polyphenols’ cytotoxic effect, a crystal violet assay was used, with modifications. The cytotoxic effect of polyphenols was analyzed on spontaneously immortalized human skin keratinocytes (HaCaT, AddexBio No. T0020001, San Diego, CA, USA) cell lines. […] Cells (1 × 10^4 cells/well) were seeded in a 96-well plate (Sarstedt, Nümbrecht, Germany) 24 h before treatment. […] Cells were incubated with the compounds for 24 h. […] After crystal violet was removed, the plates were washed in a stream of tap water and left to air-dry at room temperature for 24 h. The absorbance was measured in a microplate reader (Multiskan™ FC Microplate Photometer, Thermo Scientific™) at 590 nm. The results were expressed as IC50 value in μg/mL. The criterion used to categorize the cytotoxic activity polyphenols was as follows: […] All analyses were performed in triplicate; each replicate was also quantified three times. Data were expressed as mean standard deviation, where applicable.

[4] = system: eleven antibiotic resistant strains of bacteria; assay: Antimicrobial assay, summary over the examined strains; assay type: cell-based; details: antibiotic resistant strains of Table 1
Procedure: as §1

E. coli IMD989 = assay: Antimicrobial microdilution assay (MIC/MBC); assay type: cell-based, Escherichia coli; details: for MIC: 37 °C, 24 h; for MBC: subcultivation, 24 h at 37 °C
Procedure: as §1

E. coli IBRS E003 = assay: Antimicrobial microdilution assay (MIC/MBC); assay type: cell-based, Escherichia coli; details: for MIC: 37 °C, 24 h; for MBC: subcultivation, 24 h at 37 °C
Procedure: as §1

A. baumannii 6077/12 = assay: Antimicrobial microdilution assay (MIC/MBC); assay type: cell-based, Acinetobacter baumannii; details: for MIC: 37 °C, 24 h; for MBC: subcultivation, 24 h at 37 °C
Procedure: as §1

A. baumannii S2/2 = assay: Antimicrobial microdilution assay (MIC/MBC); assay type: cell-based, Acinetobacter baumannii; details: for MIC: 37 °C, 24 h; for MBC: subcultivation, 24 h at 37 °C
Procedure: as §1

E. coli CECT434 = system: E. coli CECT434; set-up: method as in PMID 22823343; details: cited from earlier work
S. infantis 1371/1 = assay: Antimicrobial microdilution assay (MIC/MBC); assay type: cell-based, Salmonella Infantis; details: for MIC: 37 °C, 24 h; for MBC: subcultivation, 24 h at 37 °C
Procedure: as §1

[5] = system: Methicillin resistant S. aureus IBRS MRSA 011; assay: Antimicrobial microdilution assay (MIC/MBC); assay type: cell-based, Staphylococcus aureus; details: for MIC: 37 °C, 24 h; for MBC: subcultivation, 24 h at 37 °C
Procedure: as §1

A. xylosoxidans 37F = assay: Antimicrobial microdilution assay (MIC/MBC); assay type: cell-based, Achromobacter xylosoxidans; details: for MIC: 37 °C, 24 h; for MBC: subcultivation, 24 h at 37 °C
Procedure: as §1

HaCaT cells [6] = system: HaCaT cells; set-up: method as in PMID 28962387; details: previous assessment; cited from earlier work
E. coli ATCC 25922 = system: E. coli ATCC 25922; set-up: method as in PMID 29327068; details: cited from earlier work

COc1cc(/C=C/C(=O)O)ccc1O [Ferulic acid, ferulic acid]
biofilm inhibition ([1]; 500 µg/mL (MIC)): even higher inhibition
reduction of biofilm formation (biomass), in words ([1]; MIC and sub-MIC, crystal violet, Figure 1): significant (****, p < 0.0001) reduction
MIC (P. aeruginosa ATCC 10145): 100 µg/mL (≈ 0.515 mM)
MIC (K. pneumoniae Ni9): 1000 µg/mL (≈ 5.15 mM)
MBC (K. pneumoniae Ni9): 1000 µg/mL (≈ 5.15 mM)
MIC (K. pneumoniae IT977): 1000 µg/mL (≈ 5.15 mM)
MBC (K. pneumoniae IT977): 1000 µg/mL (≈ 5.15 mM)
MIC (P. aeruginosa MMA83): 1000 µg/mL (≈ 5.15 mM)
MBC (P. aeruginosa MMA83): 1000 µg/mL (≈ 5.15 mM)
MIC (P. aeruginosa IBRS P001): 500 µg/mL (≈ 2.57 mM)
MBC (P. aeruginosa IBRS P001): 1000 µg/mL (≈ 5.15 mM)
MIC (S. aureus CECT 976): 1100 µg/mL (≈ 5.66 mM)
reduction of biofilms [2]: more than 70%
IC50 (compound concentration that inhibited 50% of the cell growth) (HaCaT cells [3]): >1000 µg/mL
lowest MIC among the examined strains [4]: 500 µg/mL
MIC (E. coli IMD989): 1000 µg/mL (≈ 5.15 mM)
MBC (E. coli IMD989): 1000 µg/mL (≈ 5.15 mM)
MIC (E. coli IBRS E003): >1000 µg/mL
MBC (E. coli IBRS E003): >1000 µg/mL
MIC (A. baumannii 6077/12): 500 µg/mL (≈ 2.57 mM)
MBC (A. baumannii 6077/12): 500 µg/mL (≈ 2.57 mM)
MIC (A. baumannii S2/2): 500 µg/mL (≈ 2.57 mM)
MBC (A. baumannii S2/2): 500 µg/mL (≈ 2.57 mM)
MIC (E. coli CECT434): 100 µg/mL (≈ 0.515 mM)
MIC (S. infantis 1371/1): 1000 µg/mL (≈ 5.15 mM)
MBC (S. infantis 1371/1): 1000 µg/mL (≈ 5.15 mM)
MIC [5]: 500 µg/mL (≈ 2.57 mM)
MBC [5]: 1000 µg/mL (≈ 5.15 mM)
MIC (A. xylosoxidans 37F): 1000 µg/mL (≈ 5.15 mM)
MBC (A. xylosoxidans 37F): 1000 µg/mL (≈ 5.15 mM)

O=C(O)c1cc(O)c(O)c(O)c1 [Gallic Acid, gallic acid]
MIC (K. pneumoniae Ni9; Klebsiella pneumoniae, NI9, read-out: MIC): 1000 µg/mL (≈ 5.88 mM)
MBC (K. pneumoniae Ni9; Klebsiella pneumoniae, NI9, read-out: MBC): 1000 µg/mL (≈ 5.88 mM)
MIC (K. pneumoniae IT977; Klebsiella pneumoniae, IT977, read-out: MIC): 1000 µg/mL (≈ 5.88 mM)
MBC (K. pneumoniae IT977; Klebsiella pneumoniae, IT977, read-out: MBC): 1000 µg/mL (≈ 5.88 mM)
MIC (P. aeruginosa MMA83; Pseudomonas aeruginosa, MMA83, read-out: MIC): 1000 µg/mL (≈ 5.88 mM)
MBC (P. aeruginosa MMA83; Pseudomonas aeruginosa, MMA83, read-out: MBC): 1000 µg/mL (≈ 5.88 mM)
MIC (P. aeruginosa IBRS P001; Pseudomonas aeruginosa, IBRSP001, read-out: MIC): > 1000 µg/mL
MBC (P. aeruginosa IBRS P001; Pseudomonas aeruginosa, IBRSP001, read-out: MBC): > 1000 µg/mL
IC50 (HaCaT cells [3]; Homo sapiens, read-out: IC50 (compound concentration that inhibited 50% of the cell growth)): < 80 µg/mL
IC50 towards HaCaT cells (HaCaT cells [6]): 84.2 µg/mL (≈ 0.495 mM)
MIC (E. coli IMD989): >1000 µg/mL
MIC (E. coli IMD989; Escherichia coli, IMD989, read-out: MIC): > 1000 µg/mL
MBC (E. coli IMD989; Escherichia coli, IMD989, read-out: MBC): > 1000 µg/mL
MIC (E. coli IBRS E003): >1000 µg/mL
MIC (E. coli IBRS E003; Escherichia coli, IBRSE003, read-out: MIC): > 1000 µg/mL
MBC (E. coli IBRS E003; Escherichia coli, IBRSE003, read-out: MBC): > 1000 µg/mL
MIC (A. baumannii 6077/12; Acinetobacter baumannii, 6077/12, read-out: MIC): 500 µg/mL (≈ 2.94 mM)
MBC (A. baumannii 6077/12; Acinetobacter baumannii, 6077/12, read-out: MBC): 1000 µg/mL (≈ 5.88 mM)
MIC (A. baumannii S2/2; Acinetobacter baumannii, S2/2, read-out: MIC): 500 µg/mL (≈ 2.94 mM)
MBC (A. baumannii S2/2; Acinetobacter baumannii, S2/2, read-out: MBC): 500 µg/mL (≈ 2.94 mM)
MIC (S. infantis 1371/1; Salmonella enterica, 1371/1, read-out: MIC): > 1000 µg/mL
MBC (S. infantis 1371/1; Salmonella enterica, 1371/1, read-out: MBC): > 1000 µg/mL
MIC (E. coli ATCC 25922): 500 µg/mL (≈ 2.94 mM)
MIC ([5]; Staphylococcus aureus, MRSA, read-out: MIC): > 1000 µg/mL
MBC ([5]; Staphylococcus aureus, MRSA, read-out: MBC): > 1000 µg/mL
MIC (A. xylosoxidans 37F; Achromobacter xylosoxidans, 37F, read-out: MIC): 500 µg/mL (≈ 2.94 mM)
MBC (A. xylosoxidans 37F; Achromobacter xylosoxidans, 37F, read-out: MBC): 1000 µg/mL (≈ 5.88 mM)
